Laboratory results from ChEMBL document CHEMBL5634173, “Identification of a novel histone H2A mono-ubiquitination-inhibiting cell-active small molecule” (Bioorg Med Chem Lett, 2024).
Active and inactive are the calls of the source. No cut-off for these calls is given here.

How the values were obtained:
U2OS [1] = assay: Antiproliferative activity against human U2OS cells assessed as reduction in cell viability at 50 uM incubated for 72 hrs; assay type: functional, cell-based
U2OS [2] = assay: Antiproliferative activity against human U2OS cells assessed as reduction in cell viability incubated for 72 hrs; assay type: functional, cell-based
U2OS [3] = assay: Antiproliferative activity against human U2OS cells assessed as reduction in cell viability at 30 uM incubated for 72 hrs; assay type: functional, cell-based
U2OS [4] = assay: Inhibition of histone H2A ubiquitination at K119 residue in human U2OS cells assessed as decrease in H2AK119ub1 level incubated for 1 hr by Western blotting analysis; assay type: cell-based; conditions: dose 24-96 µM
U2OS [5] = assay: Antiproliferative activity against human U2OS cells assessed as reduction in cell viability at 30 uM incubated for 72 hrs relative to control; assay type: functional

Compound: O=C1C(=Cc2cccnc2)C(=O)c2ccccc21
- Activity (U2OS [1]): Active
- Activity (U2OS [2]): Dose-Dependent Effect
- IC50 (U2OS [2]): 45.2 µM

Compound: O=C1C(=Cc2ccccc2[N+](=O)[O-])C(=O)c2ccccc21
- IC50 (U2OS [2]): 39.6 µM
- Activity (U2OS [3]): Active

Compound: COc1cccc(C=C2C(=O)c3ccccc3C2=O)c1
- Activity (U2OS [3]): inactive

Compound: COc1ccc(C=C2C(=O)c3ccccc3C2=O)cc1
- Activity (U2OS [3]): inactive

Compound: CCc1c(-c2cccc3[nH]ccc23)[nH]c(C(=O)O)c1-c1ccccc1Cl
- Activity (U2OS [1]): inactive

Compound: Cc1ccccc1C=C1C(=O)c2ccccc2C1=O
- Activity (U2OS [3]): inactive

Compound: O=C1C(=Cc2ccccc2)C(=O)c2ccccc21
- Activity (U2OS [3]): inactive

Compound: O=C1C(=Cc2c([N+](=O)[O-])cccc2[N+](=O)[O-])C(=O)c2ccccc21
- IC50 (U2OS [2]): 5.86 µM
- inhibition (U2OS [4]): Dose-Dependent Effect
- Activity (U2OS [5]): 100%

Compound: Cc1cccc(C=C2C(=O)c3ccccc3C2=O)c1
- Activity (U2OS [3]): inactive

Compound: O=C1C(=Cc2ccc([N+](=O)[O-])cc2)C(=O)c2ccccc21
- IC50 (U2OS [2]): 33.5 µM
- Activity (U2OS [3]): Active

Compound: N#Cc1cccc(C=C2C(=O)c3ccccc3C2=O)c1
- IC50 (U2OS [2]): 32.1 µM

Compound: Cc1cccc(C)c1C=C1C(=O)c2ccccc2C1=O
- Activity (U2OS [3]): inactive

Compound: O=C1C(=Cc2cccc(F)c2)C(=O)c2ccccc21
- Activity (U2OS [3]): inactive

Compound: Cc1ccc(C=C2C(=O)c3ccccc3C2=O)cc1
- Activity (U2OS [3]): inactive

Compound: O=C1C(=Cc2cccc([N+](=O)[O-])c2)C(=O)c2ccccc21
- IC50 (U2OS [2]): 24 µM
- Activity (U2OS [3]): Active

Compound: O=C1C(=Cc2ccc([N+](=O)[O-])cc2[N+](=O)[O-])C(=O)c2ccccc21
- IC50 (U2OS [2]): 24 µM

Compound: COc1ccccc1C=C1C(=O)c2ccccc2C1=O
- Activity (U2OS [3]): inactive
